Source: publication PMC11351550, “Synthesis, Cytotoxicity and Antioxidant Activity Evaluation of Some Thiazolyl–Catechol Compounds” (Antioxidants, 2024)
Read-outs that look alike come from different tables or passages of the source.

What was measured:
[1] = Reducing power (RP) assay; assay type: biochemical; conditions: 50 °C, 20 min, pH 6.6
Procedure: (§1) The stock solutions of the reference antioxidants (ascorbic acid, Trolox, EDTA-Na2) and compounds 3a–j were prepared by dissolving the solid powders in DMSO, obtaining 2 mM stock solutions. Following this, an additional set of solutions (0.2 mM) for each compound was obtained by dilution with DMSO. Absorption spectra of the tested compounds covering the range from 400 nm to 800 nm were recorded, indicating no absorption peaks near the wavelengths employed in the experiments. All measurements in the presented assays were made against blank samples. To quantify the activity of the compounds 3a–j, for the antiradical assays (DPPH and ABTS) and ferrous ion chelation, IC50 was calculated using Equation (1), while for the electron transfer assays (TAC, RP, FRAP and CUPRAC), the reference number of mole equivalent activity for each compound was calculated using Equation (2). (1) radical scavenging (%)=control absorbance−sample absorbance/control absorbance×100 (2) equivalents of control=sample absorbance/control absorbance
In the reducing power (RP) assay, the tested compounds performed the reduction of ferric ions from potassium ferricyanide, forming ferrocyanide, which gives a blue complex. The protocol followed is an adaptation of previously reported methodologies. In glass test tubes, 1000 µL of solutions containing compounds and standards measured from the 0.2 mM stock solutions were mixed with 400 µL of phosphate buffer (0.2 M, pH = 6.6) and 400 µL of K3[Fe(CN)6] solution (1% w/v). The tubes were sealed and incubated for 20 min in a water bath at 50 °C. After cooling to room temperature, 500 µL of trichloroacetic acid (10% w/w) was added to all test tubes The resulting mixtures were left for 0.5 h at room temperature. Subsequently, 250 µL of the resulting solutions were mixed with 140 µL of FeCl3 solution (0.1% w/v) and 1000 µL of distilled water, and the absorbance of the resulting solutions was determined at λ = 695 nm.

[2] = DPPH radical-scavenging assay; assay type: biochemical; conditions: 30 min in the dark, 517 nm; read-out: IC50 against DPPH•
Procedure: as §1
The DPPH˙ (2,2-diphenyl-1-picrylhydrazyl) radical-scavenging assay, initially reported by Brand-Williams et al., relies on transferring a hydrogen atom from the antioxidant substrate being analyzed to the stable violet radical of DPPH˙. This action converts DPPH˙ into a nonradical stable yellow compound. The reduction in absorbance of the DPPH˙ at λ = 517 nm corresponds to the quantity of neutralized reagent. To perform the DPPH assay, we took 50, 75, 100, 125, and 150 µL of each sample from their 0.2 mM stock solutions, then we adjusted the volumes with DMSO to ensure all samples reached a uniform final volume. These solutions were mixed with 1 mL of DPPH reagent and incubated in the dark for 30 min, as presented in literature reports.

[3] = test system: human pulmonary malignant cells (A549); experiment: Alamar Blue cytotoxicity assay, A549 cells; assay type: cell-based; conditions: for IC50: 48 h exposure, Alamar Blue, read-out: IC50 (±SD) A549; for Selectivity Index: ratio between the calculated IC50 on BJ and A549 cells, 48 h
Procedure: (§2) BJ cells were maintained in Dulbecco’s modified Eagle’s medium (DMEM) with low glucose (1 g/L), while the A549 cells were seeded in DMEM with high glucose (5 g/L). All media were supplemented with 10% fetal bovine serum (FBS) and 1% Penicillin/Streptomycin. […] Cellular media were refreshed every other day. Cells were either subcultured or used in experiments once they reached a confluency of 80–90%.
(§3) The cytotoxicity of the synthesized compounds was evaluated by Alamar Blue (AB) assays performed on both cell lines, A549 and BJ, after a 48 h exposure, as previously reported.
(§4) Briefly, approximately 7000 A549 cells and 4000 normal BJ cells were seeded in 100 µL cellular media in 96-well plates to achieve a confluency of 70–80% at the end of the experiment and left to attach overnight before exposure. […] Post-exposure, the media were removed, and the AB assay was performed, with cells being incubated with a 200 µM solution of resazurin for 4 h. The obtained fluorescence was measured at λexcitation = 530/25; λemission = 590/35.
(§5) The experiments included three biological replicates, each one including three technical replicates. The negative control (NC) consisted of cells exposed to a cell culture medium containing 0.2% DMSO and was used for data normalization (100%).

[4] = Total Antioxidant Capacity (TAC) assay; assay type: biochemical; conditions: 95 °C, 1.5 h, 695 nm
Procedure: as §1
The Total Antioxidant Capacity (TAC) assay was conducted following the methodology outlined in our previous publication, which was based on initial reports from the literature. A volume of 10 mL of the reagent (0.6 M H2SO4, 28 mM Na3PO4 and 4 mM (NH4)6Mo7O24) and 1000 µL of the compound and standard solutions dispensed from the 2 mM stock solutions were mixed in sealed glass test tubes and incubated in a water bath at 95 °C for 1.5 h. After cooling the test tubes to room temperature, 1000 µL of each solution was diluted with 1000 µL of water. The absorbance of the solutions was then measured at λ = 695 nm.

[5] = ABTS radical cation decolorization assay; assay type: biochemical; conditions: 10 min, pH 7.4, 734 nm; read-out: IC50 against ABTS•+
Procedure: as §1
The decolorization assay of the green ABTS^•+ (2,2′-azinobis-(3-ethylbenzothiazoline-6-sulfonic acid) to ABTS, based on the report of Re et al., was conducted following our group’s published report. The chemical stability of the ABTS^•+ reagent prior to use was checked at λ = 734 nm over one hour, ensuring a consistent absorption (approximately equal to 0.7). The reagent was prepared in potassium phosphate buffer (0.1 M, pH = 7.4) and activated overnight using MnO2 [17]. In all cuvettes, we added 100 μL of the tested compound solutions (0.2 mM) in increasing concentrations up to 200 µL and 2000 µL of the ABTS^•+ reagent. The resulting mixtures were thoroughly shaken for 10 min at room temperature, in the absence of light. The optical absorbance of the resulting mixtures was then measured by spectrophotometry at λ = 734 nm.

[6] = test system: normal human foreskin fibroblasts (BJ); experiment: Alamar Blue cytotoxicity assay, BJ cells; assay type: cell-based; conditions: for IC50: 48 h exposure, Alamar Blue
Procedure: as §2, §3, §4, §5

[7] = Ferrous ion chelation assay (ferrozine); assay type: biochemical; design: key: - represents negligible activity
Procedure: as §1
To evaluate the ability of compounds to chelate ferrous ions, an assay was performed using an adaptation of Dinis et al.’s initial report. The solutions of the tested compounds (2 mM) were mixed well with 500 µL of FeSO4 (0.125 mM), and 500 µL of ferrozine 0.315 mM. After 10 min, the absorbance of the samples was determined spectrophotometrically at λ = 562 nm. EDTA-Na2 was used as a positive control, due to its exceptional ion chelation properties.

[8] = Ferric-Reducing Antioxidant Potential (FRAP) assay; assay type: biochemical; conditions: pH 3.6, 593 nm
Procedure: as §1
The Ferric-Reducing Antioxidant Potential (FRAP) assay relies on the transfer of an electron from the antioxidant being assessed to Fe^3+, resulting in its conversion to Fe^2+. The resulting Fe^2+ ions are then chelated by 2,4,6-tripyridyl-s-triazine, giving a blue-colored complex, with an absorption maximum at λ = 593 nm. A 500 µL amount of the solutions (0.2 mM) of compounds and reference compounds was mixed with 600 µL FRAP reagent and 1200 µL acetate buffer (0.3 M, pH = 3.6), according to previous reports. The resulting solutions were mixed well in the dark, and their absorbance was measured spectrophotometrically.

[9] = CUPRAC (CUPric-Reducing Antioxidant Capacity) assay; assay type: biochemical; conditions: 30 min, 450 nm
Procedure: as §1
The electron-donating capacity of compounds was assessed using the CUPRAC (CUPric-Reducing Antioxidant Capacity) method. The protocol for this assay is a modification of the reports of Alam et al., Özyürek et al., and Apak et al.. Volumes of 250 µL of CuCl2 10 mM, 1 mL of ammonium acetate buffer 1 M, and 250 µL of 7.5 mM neocuproine in ethanol were mixed with 125 µL of samples and reference compound solutions (0.2 mM). The mixtures were shaken for 30 min in the dark; after that, their absorbance was determined spectrophotometrically at λ = 450 nm.

Row | Structure (SMILES) | IC50 [2] [µM] | IC50 [5] [µM] | RP Eq Ascorbic Acid [1] [Eq Ascorbic Acid] | RP Eq Trolox [1] [Eq Trolox] | IC50 ([3]; Homo sapiens, A549) [µM] | Selectivity Index [3] | TAC Eq Ascorbic Acid [4] [Eq Ascorbic Acid] | IC50 ([6]; Homo sapiens, Fibroblast) [µM] | ferrous ion chelation percent ([7]; 0.25 µM) | ferrous ion chelation percent ([7]; 0.5 µM) | ferrous ion chelation percent ([7]; 1 µM) | ferrous ion chelation percent ([7]; 1.5 µM) | ferrous ion chelation percent ([7]; 2 µM) | FRAP Eq Trolox [8] [Eq Trolox] | CUPRAC Eq Trolox [9] [Eq Trolox] | IC50 [3] [µM] | IC50 [6] [µM] | toxicity on BJ cells ([6]; 48 h, result in words) | decrease of viability of BJ cells ([6]; highest tested dose, 48 h)
1 | Oc1ccc(-c2csc(-c3ccc(Cl)cc3)n2)cc1O [Compound 3c] | 47.8 | 15.7 | 1.47 | 1.22 |  | 4.39 | 0.83 |  | - | - | - | - | - | 1.10 | 2.38 | 8.16 | 35.8 |  | 
2 | Oc1ccc(-c2csc(-c3ccc(Br)cc3)n2)cc1O [Compound 3d, 4-(2-(4-bromophenyl)thiazol-4-yl)benzene-1,2-diol] | 48.3 | 12.6 | 1.63 | 1.35 | 6.08 | 5.66 | 0.71 | 34.4 | - | - | - | - | - | 1.09 | 2.62 |  |  |  | 
3 | Oc1ccc(-c2csc(-c3ccccn3)n2)cc1O [Compound 3h, 4-(2-(pyridin-2-yl)thiazol-4-yl)benzene-1,2-diol] | 40.3 | 13.5 | 2.06 | 1.71 | 13.1 | 5.84 | 1.34 | 76.7 | - | - | - | - | - | 1.03 | 2.13 |  |  |  | 
4 | Oc1ccc(-c2csc(-c3ccncc3)n2)cc1O [Compound 3g, 4-(2-(pyridin-4-yl)thiazol-4-yl)benzene-1,2-diol] | 36.7 | 7.59 | 2.04 | 1.69 | 7.34 | >13.62 | 0.64 | > 100 | - | - | - | - | - | 1.63 | 3.60 |  |  |  | approximately 20%
5 | Cc1cccc(-c2nc(-c3ccc(O)c(O)c3)cs2)c1 [Compound 3e, 4-(2-(m-tolyl)thiazol-4-yl)benzene-1,2-diol] | 46.8 | 13.9 | 1.64 | 1.37 | 6.46 | 7.23 | 0.91 | 46.8 | - | - | - | - | - | 1.07 | 3.13 |  |  |  | 

Continued by falling IC50 [2], values first:

Row | IC50 [2] [µM] | IC50 [5] [µM] | Structure (SMILES) | RP Eq Ascorbic Acid [1] [Eq Ascorbic Acid] | RP Eq Trolox [1] [Eq Trolox] | IC50 ([3]; Homo sapiens, A549) [µM] | Selectivity Index [3] | TAC Eq Ascorbic Acid [4] [Eq Ascorbic Acid] | IC50 ([6]; Homo sapiens, Fibroblast) [µM] | ferrous ion chelation percent ([7]; 0.25 µM) | ferrous ion chelation percent ([7]; 0.5 µM) | ferrous ion chelation percent ([7]; 1 µM) | ferrous ion chelation percent ([7]; 1.5 µM) | ferrous ion chelation percent ([7]; 2 µM) | FRAP Eq Trolox [8] [Eq Trolox] | CUPRAC Eq Trolox [9] [Eq Trolox] | IC50 [3] [µM] | IC50 [6] [µM] | toxicity on BJ cells ([6]; 48 h, result in words) | decrease of viability of BJ cells ([6]; highest tested dose, 48 h)
6 | 51.3 | 12 | Cc1nc(-c2ccc(O)c(O)c2)cs1 [Compound 3a] | 1.73 | 1.44 |  | >3.17 | 0.38 |  | - | - | - | - | - | 0.95 | 3.17 | 31.5 | > 100 | no significant toxicity on BJ cells | 
7 | 45.9 | 14.1 | Oc1ccc(-c2csc(-c3csc(-c4ccccc4)n3)n2)cc1O [Compound 3i, 4-(2′-phenyl-[2,4′-bithiazol]-4-yl)benzene-1,2-diol] | 1.63 | 1.35 | 5.18 | 5.67 | 0.51 | 29.4 | - | - | - | - | - | 1.14 | 1.84 |  |  |  | 
